# Experimental data from ChEMBL document CHEMBL3885881, “DrugMatrix”.
# Species on record: Rattus norvegicus
# Test: DrugMatrix - Regimen: Daily Repeat
# Format: toxicity, organism-based, Sprague-Dawley
# Design: regimen Daily Repeat, gender Male, age 6-8 weeks
# Conditions: in vivo, po, route oral GAVAGE, vehicle .5 % CMC; for BASOPHIL / EOSINOPHIL / ERYTHROCYTE COUNT / HEMATOCRIT / HEMOGLOBIN / LEUKOCYTE COUNT / LYMPHOCYTE / MEAN CORPUSCULAR HEMOGLOBIN / MEAN CORPUSCULAR HEMOGLOBIN CONCENTRATION / MEAN CORPUSCULAR VOLUME / NEUTROPHIL / PLATELET COUNT: tissue Blood; for ALANINE AMINOTRANSFERASE / ALBUMIN / ALKALINE PHOSPHATASE / ASPARTATE AMINOTRANSFERASE / BLOOD UREA NITROGEN / CHLORIDE / CHOLESTEROL / CREATINE PHOSPHOKINASE / CREATININE / GLUCOSE / PHOSPHORUS / POTASSIUM / SODIUM / TOTAL BILIRUBIN / TOTAL PROTEIN: tissue Plasma
# [1] = 0 mg/kg, 72 h, dose level Control, time 3 day
# [2] = 0 mg/kg, 120 h, dose level Control, time 5 day
# [3] = 22 mg/kg, 72 h, dose level High, time 3 day
# [4] = 22 mg/kg, 120 h, dose level High, time 5 day
# [5] = […], 72 h, dose 2.4 mg/Kg, dose level Low, time 3 day
# [6] = […], 120 h, dose 2.4 mg/Kg, dose level Low, time 5 day
compound,measurement,setting,value
Cc1nc2n(c(=O)c1CCN1CCC(c3noc4cc(F)ccc34)CC1)CCCC2 [RISPERIDONE],BASOPHIL,[1],0%
same,EOSINOPHIL,[1],0%
same,ERYTHROCYTE COUNT,[1],6.19 x10E6/uL
same,HEMATOCRIT,[1],36.94%
same,HEMOGLOBIN,[1],14.58 G/DL
same,LEUKOCYTE COUNT,[1],11.54 x10E3/uL
same,LYMPHOCYTE,[1],84.8%
same,MEAN CORPUSCULAR HEMOGLOBIN,[1],23.58 pg
same,MEAN CORPUSCULAR HEMOGLOBIN CONCENTRATION,[1],39.44 G/DL
same,MEAN CORPUSCULAR VOLUME,[1],59.76 fL
same,NEUTROPHIL,[1],13.8%
same,PLATELET COUNT,[1],1068.8 x10E3/uL
same,ALANINE AMINOTRANSFERASE,[1],38.17 u/L
same,ALBUMIN,[1],3.88 G/DL
same,ALKALINE PHOSPHATASE,[1],391.33 u/L
same,ASPARTATE AMINOTRANSFERASE,[1],69.83 u/L
same,BLOOD UREA NITROGEN,[1],15 mg/dL
same,CHLORIDE,[1],104.17 MEQ/L
same,CHOLESTEROL,[1],72.17 mg/dL
same,CREATINE PHOSPHOKINASE,[1],174.33 u/L
same,CREATININE,[1],0.58 mg/dL
same,GLUCOSE,[1],192.67 mg/dL
same,PHOSPHORUS,[1],10.52 mg/dL
same,POTASSIUM,[1],6.8 MEQ/L
same,SODIUM,[1],149.67 MEQ/L
same,TOTAL BILIRUBIN,[1],0.78 mg/dL
same,TOTAL PROTEIN,[1],6.28 G/DL
same,BASOPHIL,[2],0%
same,EOSINOPHIL,[2],0.17%
same,ERYTHROCYTE COUNT,[2],6.72 x10E6/uL
same,HEMATOCRIT,[2],40.02%
same,HEMOGLOBIN,[2],15.83 G/DL
same,LEUKOCYTE COUNT,[2],9.5 x10E3/uL
same,LYMPHOCYTE,[2],87.17%
same,MEAN CORPUSCULAR HEMOGLOBIN,[2],23.57 pg
same,MEAN CORPUSCULAR HEMOGLOBIN CONCENTRATION,[2],39.62 G/DL
same,MEAN CORPUSCULAR VOLUME,[2],59.55 fL
same,NEUTROPHIL,[2],11%
same,PLATELET COUNT,[2],1053.67 x10E3/uL
same,ALANINE AMINOTRANSFERASE,[2],26.33 u/L
same,ALBUMIN,[2],4.02 G/DL
same,ALKALINE PHOSPHATASE,[2],316.67 u/L
same,ASPARTATE AMINOTRANSFERASE,[2],61.33 u/L
same,BLOOD UREA NITROGEN,[2],18.67 mg/dL
same,CHLORIDE,[2],108 MEQ/L
same,CHOLESTEROL,[2],65.17 mg/dL
same,CREATINE PHOSPHOKINASE,[2],161.17 u/L
same,CREATININE,[2],0.75 mg/dL
same,GLUCOSE,[2],177.33 mg/dL
same,PHOSPHORUS,[2],9.72 mg/dL
same,POTASSIUM,[2],6.18 MEQ/L
same,SODIUM,[2],150.5 MEQ/L
same,TOTAL BILIRUBIN,[2],0.68 mg/dL
same,TOTAL PROTEIN,[2],6.55 G/DL
same,BASOPHIL,[3],0%
same,EOSINOPHIL,[3],0%
same,ERYTHROCYTE COUNT,[3],6.13 x10E6/uL
same,HEMATOCRIT,[3],38.1%
same,HEMOGLOBIN,[3],15.27 G/DL
same,LEUKOCYTE COUNT,[3],13.67 x10E3/uL
same,LYMPHOCYTE,[3],90%
same,MEAN CORPUSCULAR HEMOGLOBIN,[3],24.93 pg
same,MEAN CORPUSCULAR HEMOGLOBIN CONCENTRATION,[3],40.1 G/DL
same,MEAN CORPUSCULAR VOLUME,[3],62.17 fL
same,NEUTROPHIL,[3],7.67%
same,PLATELET COUNT,[3],999.33 x10E3/uL
same,ALANINE AMINOTRANSFERASE,[3],31.33 u/L
same,ALBUMIN,[3],3.77 G/DL
same,ALKALINE PHOSPHATASE,[3],390.33 u/L
same,ASPARTATE AMINOTRANSFERASE,[3],54 u/L
same,BLOOD UREA NITROGEN,[3],13.67 mg/dL
same,CHLORIDE,[3],103.67 MEQ/L
same,CHOLESTEROL,[3],59 mg/dL
same,CREATINE PHOSPHOKINASE,[3],158.67 u/L
same,CREATININE,[3],0.6 mg/dL
same,GLUCOSE,[3],179 mg/dL
same,PHOSPHORUS,[3],10.93 mg/dL
same,POTASSIUM,[3],6.37 MEQ/L
same,SODIUM,[3],148.67 MEQ/L
same,TOTAL BILIRUBIN,[3],0.6 mg/dL
same,TOTAL PROTEIN,[3],5.97 G/DL
same,BASOPHIL,[4],0%
same,EOSINOPHIL,[4],0.33%
same,ERYTHROCYTE COUNT,[4],6.82 x10E6/uL
same,HEMATOCRIT,[4],40.93%
same,HEMOGLOBIN,[4],16.13 G/DL
same,LEUKOCYTE COUNT,[4],11.33 x10E3/uL
same,LYMPHOCYTE,[4],91.67%
same,MEAN CORPUSCULAR HEMOGLOBIN,[4],23.67 pg
same,MEAN CORPUSCULAR HEMOGLOBIN CONCENTRATION,[4],39.47 G/DL
same,MEAN CORPUSCULAR VOLUME,[4],60 fL
same,NEUTROPHIL,[4],6.67%
same,PLATELET COUNT,[4],1104.33 x10E3/uL
same,ALANINE AMINOTRANSFERASE,[4],28.33 u/L
same,ALBUMIN,[4],4.03 G/DL
same,ALKALINE PHOSPHATASE,[4],320.33 u/L
same,ASPARTATE AMINOTRANSFERASE,[4],53.33 u/L
same,BLOOD UREA NITROGEN,[4],15.33 mg/dL
same,CHLORIDE,[4],106 MEQ/L
same,CHOLESTEROL,[4],70 mg/dL
same,CREATINE PHOSPHOKINASE,[4],145.33 u/L
same,CREATININE,[4],0.63 mg/dL
same,GLUCOSE,[4],170.67 mg/dL
same,PHOSPHORUS,[4],10.97 mg/dL
same,POTASSIUM,[4],6.6 MEQ/L
same,SODIUM,[4],151.67 MEQ/L
same,TOTAL BILIRUBIN,[4],0.7 mg/dL
same,TOTAL PROTEIN,[4],6.6 G/DL
same,BASOPHIL,[5],0%
same,EOSINOPHIL,[5],0%
same,ERYTHROCYTE COUNT,[5],5.99 x10E6/uL
same,HEMATOCRIT,[5],36.13%
same,HEMOGLOBIN,[5],14.37 G/DL
same,LEUKOCYTE COUNT,[5],11.03 x10E3/uL
same,LYMPHOCYTE,[5],90%
same,MEAN CORPUSCULAR HEMOGLOBIN,[5],23.97 pg
same,MEAN CORPUSCULAR HEMOGLOBIN CONCENTRATION,[5],39.77 G/DL
same,MEAN CORPUSCULAR VOLUME,[5],60.27 fL
same,NEUTROPHIL,[5],9%
same,PLATELET COUNT,[5],1243 x10E3/uL
same,ALANINE AMINOTRANSFERASE,[5],32 u/L
same,ALBUMIN,[5],3.73 G/DL
same,ALKALINE PHOSPHATASE,[5],332.67 u/L
same,ASPARTATE AMINOTRANSFERASE,[5],58 u/L
same,BLOOD UREA NITROGEN,[5],11.33 mg/dL
same,CHLORIDE,[5],103.67 MEQ/L
same,CHOLESTEROL,[5],65.67 mg/dL
same,CREATINE PHOSPHOKINASE,[5],164.67 u/L
same,CREATININE,[5],0.6 mg/dL
same,GLUCOSE,[5],180.67 mg/dL
same,PHOSPHORUS,[5],11.33 mg/dL
same,POTASSIUM,[5],6.43 MEQ/L
same,SODIUM,[5],148.33 MEQ/L
same,TOTAL BILIRUBIN,[5],0.4 mg/dL
same,TOTAL PROTEIN,[5],5.8 G/DL
same,BASOPHIL,[6],0%
same,EOSINOPHIL,[6],0.67%
same,ERYTHROCYTE COUNT,[6],6.09 x10E6/uL
same,HEMATOCRIT,[6],37.37%
same,HEMOGLOBIN,[6],14.97 G/DL
same,LEUKOCYTE COUNT,[6],13.13 x10E3/uL
same,LYMPHOCYTE,[6],81.67%
same,MEAN CORPUSCULAR HEMOGLOBIN,[6],24.6 pg
same,MEAN CORPUSCULAR HEMOGLOBIN CONCENTRATION,[6],40.1 G/DL
same,MEAN CORPUSCULAR VOLUME,[6],61.4 fL
same,NEUTROPHIL,[6],13%
same,PLATELET COUNT,[6],1107.33 x10E3/uL
same,ALANINE AMINOTRANSFERASE,[6],33.33 u/L
same,ALBUMIN,[6],3.8 G/DL
same,ALKALINE PHOSPHATASE,[6],344.67 u/L
same,ASPARTATE AMINOTRANSFERASE,[6],57.33 u/L
same,BLOOD UREA NITROGEN,[6],15.67 mg/dL
same,CHLORIDE,[6],102 MEQ/L
same,CHOLESTEROL,[6],70.33 mg/dL
same,CREATINE PHOSPHOKINASE,[6],148.33 u/L
same,CREATININE,[6],0.53 mg/dL
same,GLUCOSE,[6],178.67 mg/dL
same,PHOSPHORUS,[6],10.7 mg/dL
same,POTASSIUM,[6],6.43 MEQ/L
same,SODIUM,[6],148.33 MEQ/L
same,TOTAL BILIRUBIN,[6],0.47 mg/dL
same,TOTAL PROTEIN,[6],6.07 G/DL
